{
  "source": "patent US20040063663A1",
  "about": "“Acylated cyclodextrin: guest molecule inclusion complexes” (priority 2000, published 2004)",
  "experiment": "Thermal stability of triacetyl-β-CD (TGA)",
  "type": "physicochemical",
  "procedure": "In order to determine the stability of triacetyl-β-CD, a sample was heated to 400° C. at 20° C./min under nitrogen in a DuPont 2200 thermogravimetric spectrometer (FIG. 7). […] A sample of triacetyl-β-CD was then held at 300° C. for 35 minutes (FIG. 8). Even after extended heating at this temperature, only about 3.2% weight loss was observed.",
  "data": [
    {"smiles": "CC(=O)OC[C@H]1O[C@@H]2O[C@H]3[C@H](OC(C)=O)[C@@H](OC(C)=O)[C@@H](O[C@H]4[C@H](OC(C)=O)[C@@H](OC(C)=O)[C@@H](O[C@H]5[C@H](OC(C)=O)[C@@H](OC(C)=O)[C@@H](O[C@H]6[C@H](OC(C)=O)[C@@H](OC(C)=O)[C@@H](O[C@H]7[C@H](OC(C)=O)[C@@H](OC(C)=O)[C@@H](O[C@H]8[C@H](OC(C)=O)[C@@H](OC(C)=O)[C@@H](O[C@H]1[C@H](OC(C)=O)[C@H]2OC(C)=O)O[C@@H]8COC(C)=O)O[C@@H]7COC(C)=O)O[C@@H]6COC(C)=O)O[C@@H]5COC(C)=O)O[C@@H]4COC(C)=O)O[C@@H]3COC(C)=O", "note": "[triacetyl-β-CD, heptakis(2,3,6-tri-O-acetyl)-β-cyclodextrin]", "values": [
      {"measurement": "Temperature until which 10% weight loss is not observed", "setting": "TGA, FIG. 7", "result": 372, "unit": "°C"},
      {"measurement": "Weight loss observed until above 325° C.", "setting": "heated to 400° C. at 20° C./min under nitrogen", "result": "ca. 0.2%"},
      {"measurement": "Weight loss", "setting": "held at 300° C. for 35 minutes", "result": "about 3.2%"}
    ]}
  ]
}
